Active and inactive are the calls of the source. The calls are words filed in the database; no cut-off is given here.
Tests used:
Calf thymus DNA [1] = assay: Ratio of compound concentration to polynucleotide phosphate concentration for binding affinity to calf thymus DNA; assay type: nucleic-acid assay; details: Bos taurus
Calf thymus DNA [2] = assay: Binding affinity to calf thymus DNA assessed as change in melting temperature at compound to calf thymus DNA polynucleotide ratio of 0.3 by spectrophotometric analysis; assay type: nucleic-acid assay; details: Bos taurus
[3] = test system: Poly(dA-dU)oligonucleotide; assay: Binding affinity to polyA-polyU dsRNA (unknown origin) assessed as change in melting temperature at 0.5 ratio of compound to RNA by spectrophotometric analysis; assay type: nucleic-acid assay
Calf thymus DNA [4] = assay: Binding affinity to calf thymus DNA assessed as hypochromic effect by UV-vis spectrophotometric method relative to control; assay type: nucleic-acid assay; parameters: concentration or dose not given beside the values; details: Bos taurus
[5] = test system: Poly(dA-dU)oligonucleotide; assay: Binding affinity to polyA-polyU dsRNA (unknown origin) assessed as change in melting temperature at 0.3 ratio of compound to RNA by spectrophotometric analysis; assay type: nucleic-acid assay
[6] = test system: Poly(dA-dU)oligonucleotide; assay: Binding affinity to polyA-polyU dsRNA (unknown origin) assessed as binding constant by UV-vis spectrophotometric method; assay type: nucleic-acid assay
[7] = Binding affinity to polyA-polyU dsRNA (unknown origin) assessed as hypochromic effect by UV-vis spectrophotometric method relative to control; assay type: nucleic-acid assay; parameters: concentration or dose not given beside the values
Trypanosoma brucei = assay: Antitrypanosomal activity against Trypanosoma brucei 221 incubated for 48 hrs by resazurin based fluorescence assay; assay type: functional, organism-based; details: Trypanosoma brucei, 221, 48 h
Calf thymus DNA [8] = assay: Binding affinity to calf thymus DNA assessed as conformational change by circular dichroism analysis; assay type: nucleic-acid assay; details: Bos taurus
[9] = Ratio of compound concentration to polynucleotide phosphate concentration for binding affinity to polyA-polyU dsRNA (unknown origin); assay type: nucleic-acid assay
[10] = Binding affinity to polyA-polyU dsRNA (unknown origin) assessed as change in melting temperature at 0.1 ratio of compound to RNA by spectrophotometric analysis; assay type: nucleic-acid assay
Calf thymus DNA [11] = assay: Binding affinity to calf thymus DNA by UV-vis spectrophotometric method; assay type: nucleic-acid assay; details: Bos taurus
Calf thymus DNA [12] = assay: Binding affinity to calf thymus DNA assessed as change in melting temperature at compound to calf thymus DNA polynucleotide ratio of 0.5 by spectrophotometric analysis; assay type: nucleic-acid assay; details: Bos taurus
Calf thymus DNA [13] = assay: Binding affinity to calf thymus DNA assessed as change in melting temperature at compound to calf thymus DNA polynucleotide ratio of 0.1 by spectrophotometric analysis; assay type: nucleic-acid assay; details: Bos taurus
L6 = assay: Cytotoxicity against rat L6 cells incubated for 6 days by resazurin based fluorescence assay; assay type: cell-based; details: L6, 144 h

SMILES | Ratio (Calf thymus DNA [1]) | ΔTm (Calf thymus DNA [2]) | ΔTm [3] | Activity (Calf thymus DNA [4]) | ΔTm [5] | log Ks [6] | Activity [7] | IC50 (Trypanosoma brucei) | Activity (Calf thymus DNA [8]) | Ratio [9] | ΔTm [10] | log Ks (Calf thymus DNA [11]) | ΔTm (Calf thymus DNA [12]) | ΔTm (Calf thymus DNA [13]) | IC90 (Trypanosoma brucei) | IC50 (L6)
c1ccc2[nH]c(-c3ccc(Cn4cc(COCc5cn(Cc6ccc(-c7nc8ccccc8[nH]7)o6)nn5)nn4)o3)nc2c1 | 0.29 | 0.7 °C | 0.6 °C | 36% | 0 °C | 5.76 | 41% | > 15 µM | inactive | 0.31 | 0.6 °C | 6.22 | 1.1 °C | 0.6 °C | – | –
Clc1ccc2[nH]c(-c3ccc(Cn4cc(CCCc5cn(Cc6ccc(-c7nc8cc(Cl)ccc8[nH]7)o6)nn5)nn4)o3)nc2c1 | 0.05 | 4.1 °C | 0 °C | 27% | 0 °C | < 4 | 34% | 3 µM | inactive | 0.5 | 0 °C | 7.04 | 2.5 °C | 2.1 °C | 7.2 µM | > 300 µM
CC(C)NC(=N)c1ccc2[nH]c(-c3ccc(Cn4cc(COCc5cn(Cc6ccc(-c7nc8cc(C(=N)NC(C)C)ccc8[nH]7)o6)nn5)nn4)o3)nc2c1 | 0.67 | 9.7 °C | 1.6 °C | 21% | 2 °C | 6.16 | 13% | 7.9 µM | Active | 0.3 | 1.3 °C | 5.68 | 11.1 °C | 8.1 °C | 10.8 µM | –
Cl.Cl.N=C(N)c1ccc2[nH]c(-c3ccc(Cn4cc(CCCc5cn(Cc6ccc(-c7nc8cc(C(=N)N)ccc8[nH]7)o6)nn5)nn4)o3)nc2c1 | 0.05 | 13 °C | 9.3 °C | 13% | 0.6 °C | 5.7 | 46% | 3.6 µM | Active | 0.3 | 1.5 °C | 6.61 | 13.8 °C | 13.6 °C | 5.5 µM | 198 µM
c1ccc2[nH]c(-c3ccc(Cn4cc(CCCc5cn(Cc6ccc(-c7nc8ccccc8[nH]7)o6)nn5)nn4)o3)nc2c1 | 0.19 | 1.2 °C | 0 °C | 45% | 0 °C | 6.54 | 10% | > 15 µM | inactive | 0.13 | 0 °C | 6.55 | 3.2 °C | 2.6 °C | – | –
Cl.Cl.N=C(N)c1ccc2[nH]c(-c3ccc(Cn4cc(COCc5cn(Cc6ccc(-c7nc8cc(C(=N)N)ccc8[nH]7)o6)nn5)nn4)o3)nc2c1 | 0.47 | 10.4 °C | 3.3 °C | 37% | 3.5 °C | 6.65 | 24% | 3.3 µM | Active | 0.43 | 2.2 °C | 5.93 | 12.5 °C | 9.2 °C | 4.7 µM | 88.6 µM

Second part, led by results:

Ratio (Calf thymus DNA [1]) | ΔTm (Calf thymus DNA [2]) | ΔTm [3] | Activity (Calf thymus DNA [4]) | ΔTm [5] | log Ks [6] | Activity [7] | IC50 (Trypanosoma brucei) | Activity (Calf thymus DNA [8]) | Ratio [9] | ΔTm [10] | log Ks (Calf thymus DNA [11]) | ΔTm (Calf thymus DNA [12]) | ΔTm (Calf thymus DNA [13]) | IC90 (Trypanosoma brucei) | SMILES | IC50 (L6)
0.1 | 3.2 °C | 0 °C | 35% | 0 °C | 5.5 | 22% | > 15 µM | inactive | 0.3 | 0 °C | 6.18 | 2.6 °C | 2.8 °C | – | c1ccc2[nH]c(-c3ccc(Cn4cc(COc5ccc(OCc6cn(Cc7ccc(-c8nc9ccccc9[nH]8)o7)nn6)cc5)nn4)o3)nc2c1 | –
0.21 | 1.2 °C | 0.6 °C | 35% | 0.6 °C | 5.12 | 52% | 6.4 µM | inactive | 0.19 | 1 °C | 5.21 | 2.6 °C | 0.7 °C | 11.8 µM | Clc1ccc2[nH]c(-c3ccc(Cn4cc(COCc5cn(Cc6ccc(-c7nc8cc(Cl)ccc8[nH]7)o6)nn5)nn4)o3)nc2c1 | –
0.47 | 0.5 °C | 1 °C | 35% | 1 °C | 6.43 | 51% | 7.9 µM | inactive | 0.35 | 1 °C | 5.93 | 0 °C | 0 °C | > 25 µM | Fc1ccc2[nH]c(-c3ccc(Cn4cc(COCc5cn(Cc6ccc(-c7nc8cc(F)ccc8[nH]7)o6)nn5)nn4)o3)nc2c1 | –
0.17 | 1.2 °C | 0 °C | 25% | 0 °C | – | 11% | 3.4 µM | inactive | – | 0 °C | 5.92 | 3.4 °C | 0.5 °C | 6.7 µM | Fc1ccc2[nH]c(-c3ccc(Cn4cc(COc5ccc(OCc6cn(Cc7ccc(-c8nc9cc(F)ccc9[nH]8)o7)nn6)cc5)nn4)o3)nc2c1 | 219 µM
0.65 | 1.5 °C | 0 °C | 27% | 0 °C | – | 7% | 1.4 µM | inactive | – | 0 °C | 6.33 | 2 °C | 0.7 °C | 2.5 µM | Clc1ccc2[nH]c(-c3ccc(Cn4cc(COc5ccc(OCc6cn(Cc7ccc(-c8nc9cc(Cl)ccc9[nH]8)o7)nn6)cc5)nn4)o3)nc2c1 | > 270 µM
0.3 | 0 °C | – | 16% | 0 °C | – | 15% | 0.37 µM | inactive | – | – | 4 | – | – | 9.7 µM | Clc1ccc2[nH]c(-c3ccc(Cn4cc(COc5ccc(-c6ccc(OCc7cn(Cc8ccc(-c9nc%10cc(Cl)ccc%10[nH]9)o8)nn7)cc6)cc5)nn4)o3)nc2c1 | 30.4 µM
0.3 | 0 °C | – | 14% | 0 °C | – | 12% | > 10 µM | inactive | – | – | 4 | – | – | – | c1ccc2[nH]c(-c3ccc(Cn4cc(COc5ccc(-c6ccc(OCc7cn(Cc8ccc(-c9nc%10ccccc%10[nH]9)o8)nn7)cc6)cc5)nn4)o3)nc2c1 | –

Source: ChEMBL document CHEMBL4346704, “Novel symmetric bis-benzimidazoles: Synthesis, DNA/RNA binding and antitrypanosomal activity” (Eur J Med Chem, 2019)
